# Experiments:
# Coagulation factor X [1] = target: T1, Coagulation factor X (Homo sapiens, UniProt P00742); experiment: In vitro inhibitory activity against coagulation factor X.
# [2] = Oral bioavailability in rat (dose 6 mg/kg); assay type: ADME, organism-based; conditions: in vivo
# Coagulation factor X [3] = target: T1, Coagulation factor X; experiment: Inhibitory activity against Coagulation factor X
# Plasminogen = Plasminogen (Homo sapiens, UniProt P00747); experiment: Inhibitory activity against plasmin.
# Plasminogen, sequence (P00747 97-580 limits assumed): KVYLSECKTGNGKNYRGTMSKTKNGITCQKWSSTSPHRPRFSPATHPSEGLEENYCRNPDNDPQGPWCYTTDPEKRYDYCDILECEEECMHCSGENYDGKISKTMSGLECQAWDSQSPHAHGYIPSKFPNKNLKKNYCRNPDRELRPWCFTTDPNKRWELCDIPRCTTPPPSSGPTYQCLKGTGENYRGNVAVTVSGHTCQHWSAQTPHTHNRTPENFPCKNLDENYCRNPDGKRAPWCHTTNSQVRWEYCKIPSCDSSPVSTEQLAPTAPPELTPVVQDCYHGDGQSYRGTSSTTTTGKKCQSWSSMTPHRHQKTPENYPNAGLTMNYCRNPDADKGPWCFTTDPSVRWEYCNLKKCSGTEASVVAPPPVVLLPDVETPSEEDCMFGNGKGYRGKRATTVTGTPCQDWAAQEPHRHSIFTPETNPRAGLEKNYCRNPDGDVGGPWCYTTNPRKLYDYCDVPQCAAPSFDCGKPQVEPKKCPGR
# Plasminogen, sequence (P00747 581-810 limits assumed): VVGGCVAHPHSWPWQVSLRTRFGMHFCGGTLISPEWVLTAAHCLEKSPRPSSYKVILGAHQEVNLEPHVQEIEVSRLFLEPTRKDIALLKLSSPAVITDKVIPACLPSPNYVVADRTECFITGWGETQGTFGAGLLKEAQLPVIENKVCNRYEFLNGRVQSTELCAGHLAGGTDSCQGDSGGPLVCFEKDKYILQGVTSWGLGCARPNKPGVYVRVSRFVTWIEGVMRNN
# Homo sapiens = species on record: Homo sapiens; experiment: Concentration required to double the lag time of maximum thrombin generation in human plasma-based thrombin generation assay; assay type: functional
# [4] = target: Tissue-type plasminogen activator (Homo sapiens, UniProt P00750); experiment: Inhibitory activity against tissue type plasminogen activator.
# Tissue-type plasminogen activator, sequence (P00750 whole entry): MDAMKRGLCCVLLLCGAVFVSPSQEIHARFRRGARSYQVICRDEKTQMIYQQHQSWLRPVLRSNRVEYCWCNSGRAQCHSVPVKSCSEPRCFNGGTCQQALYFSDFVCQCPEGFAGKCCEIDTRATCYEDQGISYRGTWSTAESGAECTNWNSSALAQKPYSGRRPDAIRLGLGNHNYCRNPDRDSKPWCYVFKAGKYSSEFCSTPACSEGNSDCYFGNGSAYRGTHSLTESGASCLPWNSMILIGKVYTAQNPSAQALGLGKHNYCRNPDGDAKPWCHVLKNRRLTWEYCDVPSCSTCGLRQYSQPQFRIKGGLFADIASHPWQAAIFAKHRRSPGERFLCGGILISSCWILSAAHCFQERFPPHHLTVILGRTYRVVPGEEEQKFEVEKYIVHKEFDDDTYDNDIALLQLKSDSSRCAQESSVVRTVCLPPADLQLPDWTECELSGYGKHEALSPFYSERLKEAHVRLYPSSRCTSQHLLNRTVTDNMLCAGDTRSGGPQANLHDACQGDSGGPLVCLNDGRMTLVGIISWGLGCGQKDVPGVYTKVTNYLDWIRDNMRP
# Serine protease 1 = Serine protease 1 (Homo sapiens, UniProt P07477); experiment: Inhibitory activity against trypsin.
# Serine protease 1, sequence (P07477 whole entry): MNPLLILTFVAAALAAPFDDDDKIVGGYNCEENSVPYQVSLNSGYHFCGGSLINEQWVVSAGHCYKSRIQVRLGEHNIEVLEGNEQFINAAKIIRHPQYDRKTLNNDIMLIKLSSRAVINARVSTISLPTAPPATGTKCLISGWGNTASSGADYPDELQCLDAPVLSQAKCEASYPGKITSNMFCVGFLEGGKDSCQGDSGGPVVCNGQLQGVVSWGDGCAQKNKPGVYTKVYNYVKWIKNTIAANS
# Plasma kallikrein = Plasma kallikrein (Homo sapiens, UniProt P03952); experiment: Inhibitory activity against kallikrein
# Plasma kallikrein, sequence (P03952 20-390 limits assumed): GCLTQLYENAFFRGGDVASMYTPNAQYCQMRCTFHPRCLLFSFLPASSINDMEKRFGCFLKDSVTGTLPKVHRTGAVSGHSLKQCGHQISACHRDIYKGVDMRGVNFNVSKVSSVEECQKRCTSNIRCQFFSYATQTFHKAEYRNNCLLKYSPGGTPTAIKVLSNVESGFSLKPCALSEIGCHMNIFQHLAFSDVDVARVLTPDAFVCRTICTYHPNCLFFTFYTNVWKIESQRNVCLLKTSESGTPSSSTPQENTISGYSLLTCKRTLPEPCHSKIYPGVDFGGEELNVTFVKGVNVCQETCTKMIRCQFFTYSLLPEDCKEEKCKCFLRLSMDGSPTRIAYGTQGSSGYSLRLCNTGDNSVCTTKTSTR
# Plasma kallikrein, sequence (P03952 391-638 limits assumed): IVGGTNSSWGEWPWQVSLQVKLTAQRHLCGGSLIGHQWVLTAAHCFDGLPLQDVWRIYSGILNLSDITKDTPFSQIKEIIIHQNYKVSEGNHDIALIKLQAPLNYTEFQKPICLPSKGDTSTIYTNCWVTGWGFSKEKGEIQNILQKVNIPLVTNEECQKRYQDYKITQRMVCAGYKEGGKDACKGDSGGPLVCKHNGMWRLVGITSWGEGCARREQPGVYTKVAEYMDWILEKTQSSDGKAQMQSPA
# [5] = target: Vitamin K-dependent protein C (Homo sapiens, UniProt P04070); experiment: Inhibitory activity against activated protein C
# Vitamin K-dependent protein C, sequence (P04070 43-197 limits assumed): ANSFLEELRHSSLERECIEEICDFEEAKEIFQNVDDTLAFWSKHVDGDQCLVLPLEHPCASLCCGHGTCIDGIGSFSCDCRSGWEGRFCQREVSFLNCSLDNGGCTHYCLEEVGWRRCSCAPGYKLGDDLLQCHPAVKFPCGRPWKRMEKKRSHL
# Vitamin K-dependent protein C, sequence (P04070 212-461 limits assumed): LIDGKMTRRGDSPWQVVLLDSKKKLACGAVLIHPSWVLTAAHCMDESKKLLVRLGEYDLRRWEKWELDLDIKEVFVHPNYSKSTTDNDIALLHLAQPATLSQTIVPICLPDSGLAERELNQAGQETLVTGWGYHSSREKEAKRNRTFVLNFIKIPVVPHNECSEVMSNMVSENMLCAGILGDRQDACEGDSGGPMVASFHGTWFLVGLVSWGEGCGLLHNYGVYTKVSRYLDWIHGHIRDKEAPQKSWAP
# Prothrombin = Prothrombin (Homo sapiens, UniProt P00734); experiment: Inhibitory activity against thrombin.
# Coagulation factor X [6] = target: T1, Coagulation factor X; experiment: In vitro inhibitory activity against Coagulation factor X
# [7] = Half life after intravenous administration was determined in rats at 0.4 mg/kg; conditions: rat, in vivo
# [8] = Plasma clearance after intravenous administration of 0.4 mg/kg of dose in rats was determined; assay type: ADME, organism-based; parameters: dose 0.4 mg/kg, route intravenous; conditions: rat
# [9] = Oral bioavailability in rats at 6 mg/kg; assay type: ADME, organism-based; conditions: rat, in vivo
# Rattus norvegicus = experiment: Volume of distribution after intravenous administration of 0.4 mg/kg of dose in rats was determined; conditions: in vivo
# T1 sequence (P00742 41-179 limits assumed): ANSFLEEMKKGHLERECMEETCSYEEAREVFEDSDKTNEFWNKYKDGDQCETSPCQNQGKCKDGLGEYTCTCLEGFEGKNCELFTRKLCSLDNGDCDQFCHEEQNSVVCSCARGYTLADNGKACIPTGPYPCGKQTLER
# T1 sequence (P00742 235-488 limits assumed): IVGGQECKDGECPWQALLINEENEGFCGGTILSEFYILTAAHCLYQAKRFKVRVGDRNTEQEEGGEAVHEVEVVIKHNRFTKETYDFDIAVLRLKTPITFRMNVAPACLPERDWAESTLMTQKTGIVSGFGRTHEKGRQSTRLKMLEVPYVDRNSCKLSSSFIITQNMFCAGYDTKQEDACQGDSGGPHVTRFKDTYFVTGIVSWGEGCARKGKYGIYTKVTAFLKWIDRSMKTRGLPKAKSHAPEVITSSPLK
SMILES,IC50 (Coagulation factor X [1]) [µM],bioavailability [2] [%],Ki (Coagulation factor X [3]) [µM],IC50 (Plasminogen) [µM],Activity (Homo sapiens) [µM],IC50 [4] [µM],IC50 (Serine protease 1) [µM],IC50 (Plasma kallikrein) [µM],IC50 [5] [µM],IC50 (Prothrombin) [µM],Ki (Coagulation factor X [6]) [µM],half-life [7] [h],clearance [8] [mL/min/kg],bioavailability [9] [%],Volume of distribution (Rattus norvegicus) [L/kg]
CN(C)NCc1ccc(C(=O)Nc2ccc(Cl)cc2C(=O)Nc2ccc(Cl)cn2)cc1,0.0009,4,0.0003,> 11,1.5,> 11,> 11,0.64,> 11,> 11,,,,,
C/N=C(/N)N(C)Cc1ccc(C(=O)Nc2ccc(Cl)cc2C(=O)Nc2ccc(Cl)cn2)cc1,0.0007,,,> 11,0.79,> 11,> 11,0.79,> 11,> 11,0.0002,,,,
C[N+](C)(C)Cc1ccc(C(=O)Nc2ccc(Cl)cc2C(=O)Nc2ccc(Cl)cn2)cc1,0.0008,< 1,,> 11,0.3,> 11,> 11,0.13,> 11,> 11,0.001,,,,
CC(=N)NCc1ccc(C(=O)Nc2ccc(Cl)cc2C(=O)Nc2ccc(Cl)cn2)cc1,0.0036,,,> 11,,> 11,> 11,,> 11,> 11,,,,,
CN(Cc1ccc(C(=O)Nc2ccc(Cl)cc2C(=O)Nc2ccc(Cl)cn2)cc1)C1=NCCN1,0.002,,,> 11,,> 11,> 11,,> 11,> 11,,,,,
O=C(Nc1ccc(Cl)cc1C(=O)Nc1ccc(Cl)cn1)c1ccc(CN2CCC(C(=O)O)CC2)cc1,0.23,,,> 11,,> 11,> 11,,> 11,> 11,,,,,
CN1CCN(Cc2ccc(C(=O)Nc3ccc(Cl)cc3C(=O)Nc3ccc(Cl)cn3)cc2)CC1,0.015,,,> 11,,> 11,> 11,,> 11,> 11,,,,,
CCOC(=O)CN(C)Cc1ccc(C(=O)Nc2ccc(Cl)cc2C(=O)Nc2ccc(Cl)cn2)cc1,0.176,,,> 11,,> 11,> 11,,> 11,> 11,,,,,
O=C(Nc1ccc(Cl)cc1C(=O)Nc1ccc(Cl)cn1)c1ccc(CN2CCC(O)CC2)cc1,0.136,,,> 11,,> 11,> 11,,> 11,> 11,,,,,
CCOC(=O)C1CCN(Cc2ccc(C(=O)Nc3ccc(Cl)cc3C(=O)Nc3ccc(Cl)cn3)cc2)CC1,0.171,,,> 11,,> 11,> 11,,> 11,> 11,,,,,
COCCN(C)Cc1ccc(C(=O)Nc2ccc(Cl)cc2C(=O)Nc2ccc(Cl)cn2)cc1,0.053,,,> 11,,> 11,> 11,,> 11,> 11,,,,,
CCN(C)Cc1ccc(C(=O)Nc2ccc(Cl)cc2C(=O)Nc2ccc(Cl)cn2)cc1,0.012,,,> 11,,> 11,> 11,,> 11,> 11,,,,,
O=C(Nc1ccc(Cl)cc1C(=O)Nc1ccc(Cl)cn1)c1ccc(C[n+]2ccccc2)cc1,0.0058,,,> 11,,> 11,> 11,,> 11,> 11,,,,,
CN(C)CCN(C)Cc1ccc(C(=O)Nc2ccc(Cl)cc2C(=O)Nc2ccc(Cl)cn2)cc1,0.0069,,,> 11,,> 11,> 11,,> 11,> 11,,,,,
CN1CCN=C1N(C)Cc1ccc(C(=O)Nc2ccc(Cl)cc2C(=O)Nc2ccc(Cl)cn2)cc1,0.0003,< 1,,> 11,0.3,> 11,> 11,0.3,> 11,> 11,0.0003,,,,
N=C1NCCN1Cc1ccc(C(=O)Nc2ccc(Cl)cc2C(=O)Nc2ccc(Cl)cn2)cc1,0.0015,< 1,,> 11,0.58,> 11,> 11,0.21,> 11,> 11,0.0005,,,,
CC(=N)N(C)Cc1ccc(C(=O)Nc2ccc(Cl)cc2C(=O)Nc2ccc(Cl)cn2)cc1,,< 1,,> 11,0.5,> 11,> 11,0.5,> 11,> 11,,,,,
C/N=C(/NC)N(C)Cc1ccc(C(=O)Nc2ccc(Cl)cc2C(=O)Nc2ccc(Cl)cn2)cc1,0.0008,,,> 11,,> 11,> 11,,> 11,> 11,,,,,
CN(C)Cc1ccc(C(=O)Nc2ccc(Cl)cc2C(=O)Nc2ccc(Cl)cn2)cc1,,,,> 11,3.2,> 11,> 11,0.5,> 11,> 11,,7.5,20.6,100,32.9
CN(CCO)Cc1ccc(C(=O)Nc2ccc(Cl)cc2C(=O)Nc2ccc(Cl)cn2)cc1,0.082,,,> 11,,> 11,> 11,,> 11,> 11,,,,,
O=C(Nc1ccc(Cl)cc1C(=O)Nc1ccc(Cl)cn1)c1ccc(CN2CCNC2=O)cc1,0.03,,,> 11,,> 11,> 11,,> 11,> 11,,,,,
CN(C)C1=NCCN1Cc1ccc(C(=O)Nc2ccc(Cl)cc2C(=O)Nc2ccc(Cl)cn2)cc1,0.0013,,,> 11,,> 11,> 11,,> 11,> 11,,,,,
N=C(N)NCc1ccc(C(=O)Nc2ccc(Cl)cc2C(=O)Nc2ccc(Cl)cn2)cc1,0.0014,,,> 11,,> 11,> 11,,> 11,> 11,,,,,
CN(Cc1ccc(C(=O)Nc2ccc(Cl)cc2C(=O)Nc2ccc(Cl)cn2)cc1)C(=N)N,0.001,< 1,,> 11,0.38,> 11,> 11,0.38,> 11,> 11,0.0001,,,,
NCc1ccccc1-c1ccc(C(=O)Nc2ccc(Cl)cc2C(=O)Nc2ccc(Cl)cn2)cc1,0.0013,,,,>5,,,,,,,,,,
O=C(Nc1ccc(Cl)cc1C(=O)Nc1ccc(Cl)cn1)c1ccc(CN2CCN=C2S)cc1,0.035,,,> 11,,> 11,> 11,,> 11,> 11,,,,,
CN(CC(=O)O)Cc1ccc(C(=O)Nc2ccc(Cl)cc2C(=O)Nc2ccc(Cl)cn2)cc1,0.156,,,> 11,,> 11,> 11,,> 11,> 11,,,,,

# From ChEMBL document CHEMBL1147578, “Design, synthesis, and SAR of anthranilamide-based factor Xa inhibitors with improved functional activity” (Bioorg Med Chem Lett, 2004)
